Consider 1 molecule from patent publication US11730705B2, “Small molecule CMKLR1 antagonists in inflammatory disease” (The Board of Trustees of the Leland Stanford Junior …, priority 2019, dated 2023).

Common to all, as to experiment: Cyp enzyme inhibition, human liver microsomes
Holding throughout (format): in vitro ADME
What all share (details): 30 min pre-incubation

One data set concerns the target T1, Cyp2C19 (Homo sapiens, UniProt P33261).
T1 construct: Human liver microsomes were pre-incubated with 7 concentrations; tissue Cyprotex/Evotec AG; host or cells: human liver microsomes
On the procedure: (§1) Cyp enzyme inhibition. Human liver microsomes were pre-incubated with 7 concentrations ([…], duplicate wells) of α-NETA for 30 min.

The target in a further data set is T2, Cyp2C8 (Homo sapiens, UniProt P10632).
T2 construct: Human liver microsomes were pre-incubated with 7 concentrations; tissue Cyprotex/Evotec AG; host or cells: human liver microsomes
T2 sequence (P10632 1-490): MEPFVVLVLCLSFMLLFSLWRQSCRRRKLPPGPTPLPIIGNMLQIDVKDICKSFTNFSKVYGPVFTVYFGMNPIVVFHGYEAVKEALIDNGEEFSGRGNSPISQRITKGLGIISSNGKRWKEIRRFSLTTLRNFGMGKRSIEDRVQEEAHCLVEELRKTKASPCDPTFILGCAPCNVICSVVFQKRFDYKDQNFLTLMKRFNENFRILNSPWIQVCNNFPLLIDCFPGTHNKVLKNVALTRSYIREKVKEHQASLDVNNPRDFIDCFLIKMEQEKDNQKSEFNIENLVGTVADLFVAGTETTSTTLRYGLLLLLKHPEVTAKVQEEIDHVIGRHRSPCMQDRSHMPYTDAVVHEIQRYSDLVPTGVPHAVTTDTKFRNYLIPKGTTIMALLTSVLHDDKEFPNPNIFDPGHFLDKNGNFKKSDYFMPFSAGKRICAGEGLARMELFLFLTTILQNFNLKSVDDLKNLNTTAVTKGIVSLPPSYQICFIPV
On the procedure:
as §1

The next data set deals with T3, Cyp2B6 (Homo sapiens, UniProt P20813).
T3 construct: Human liver microsomes were pre-incubated with 7 concentrations; tissue Cyprotex/Evotec AG; host or cells: human liver microsomes
T3 sequence (P20813 1-491): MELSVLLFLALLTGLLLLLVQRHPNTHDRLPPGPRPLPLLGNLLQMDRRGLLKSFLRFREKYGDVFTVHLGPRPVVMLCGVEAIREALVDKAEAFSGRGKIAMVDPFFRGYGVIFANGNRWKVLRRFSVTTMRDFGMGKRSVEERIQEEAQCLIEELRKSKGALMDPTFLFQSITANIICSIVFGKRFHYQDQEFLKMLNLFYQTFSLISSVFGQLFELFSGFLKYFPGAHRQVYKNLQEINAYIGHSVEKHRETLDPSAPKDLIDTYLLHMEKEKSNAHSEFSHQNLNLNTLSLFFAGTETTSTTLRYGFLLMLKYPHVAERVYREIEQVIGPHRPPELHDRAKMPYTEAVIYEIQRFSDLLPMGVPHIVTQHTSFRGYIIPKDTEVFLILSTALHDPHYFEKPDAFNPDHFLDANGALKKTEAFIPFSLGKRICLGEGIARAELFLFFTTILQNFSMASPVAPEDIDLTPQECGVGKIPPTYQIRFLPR
As to the method:
as §1

For a further data set, the target named is T4, Cyp2C9 (Homo sapiens, UniProt P11712).
T4 construct: Human liver microsomes were pre-incubated with 7 concentrations; tissue Cyprotex/Evotec AG; host or cells: human liver microsomes
As to the method: as §1

For orientation: IC50 means the concentration at which inhibition is half-maximal. Read a high IC50 as a need for much substance.

T1 sequence (P33261 whole entry): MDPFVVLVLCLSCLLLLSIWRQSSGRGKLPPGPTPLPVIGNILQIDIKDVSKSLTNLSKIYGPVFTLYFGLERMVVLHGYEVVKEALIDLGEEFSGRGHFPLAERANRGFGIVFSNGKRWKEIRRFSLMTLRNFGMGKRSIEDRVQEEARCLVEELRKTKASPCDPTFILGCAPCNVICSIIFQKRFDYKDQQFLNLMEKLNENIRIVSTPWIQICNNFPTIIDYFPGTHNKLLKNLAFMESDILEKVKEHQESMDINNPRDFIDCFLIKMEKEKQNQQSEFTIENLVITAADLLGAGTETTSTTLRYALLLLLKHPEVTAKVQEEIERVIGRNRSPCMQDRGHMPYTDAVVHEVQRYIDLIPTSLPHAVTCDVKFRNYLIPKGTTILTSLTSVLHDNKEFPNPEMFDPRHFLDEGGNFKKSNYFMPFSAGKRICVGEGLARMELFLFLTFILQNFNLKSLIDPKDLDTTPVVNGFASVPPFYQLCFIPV
T4 sequence (P11712 whole entry): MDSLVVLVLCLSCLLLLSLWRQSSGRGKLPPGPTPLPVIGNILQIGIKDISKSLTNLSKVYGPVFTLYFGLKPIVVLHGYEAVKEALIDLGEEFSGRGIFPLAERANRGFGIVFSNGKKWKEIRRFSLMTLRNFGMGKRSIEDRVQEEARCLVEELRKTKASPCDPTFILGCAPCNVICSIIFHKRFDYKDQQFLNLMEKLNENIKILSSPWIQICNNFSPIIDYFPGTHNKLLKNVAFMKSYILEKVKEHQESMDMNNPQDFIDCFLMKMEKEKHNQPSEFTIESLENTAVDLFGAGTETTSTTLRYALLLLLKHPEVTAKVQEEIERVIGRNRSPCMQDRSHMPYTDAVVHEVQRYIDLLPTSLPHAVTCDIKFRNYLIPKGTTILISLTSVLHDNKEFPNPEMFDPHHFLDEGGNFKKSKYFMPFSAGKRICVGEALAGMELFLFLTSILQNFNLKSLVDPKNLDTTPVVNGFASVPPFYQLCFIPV

On to `C[N+](C)(C)CCC(=O)c1cccc2ccccc12.[I-]` [α-NETA, 2-(α-naphthoyl) ethyltrimethylammonium iodide], for which the IC50 at Cyp2C19 is 84 µM; on Cyp2C8 it was 1.5 µM; on Cyp2B6, 0.12 µM; on Cyp2C9, 14.6 µM.
